Test results: US11571423B2, “Small molecule modulators of human sting” (Curadev Pharma Limited, priority 2017, dated 2023)
Where a name gives a salt, the structure may show the parent alone. Read-outs that look alike come from different tables or passages of the source.

Columns and labels:
[1] = biological target: hSTING(R232) (Homo sapiens, UniProt Q86WV6, H232R); test: Luciferase reporter assay in HEK293T-hSTING-Luciferase cells, R232 (wild type) human STING; assay type: cell-based; details: 20 hr stimulation
Method in brief: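 After 20 hr compound stimulation of 5×10^5 cells, secreted luciferase in the supernatant was measured by luminescence; values are fold-induction over baseline and EC50. The line is a clonal HEK293T stably carrying a STING plasmid (pUNO-1) and a luciferase reporter under five tandem ISREs fused to an ISG54 promoter.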

[2] = biological target: cynomolgus monkey STING protein (Macaca fascicularis, UniProt A0A2R3XZA6); test: Luciferase reporter assay, cynomolgus monkey STING overexpressed in HEK293T cells; assay type: cell-based
Method: 5×10^5 clonally selected HEK293T-hSTING-Luciferase cells were seeded in 384-well plates in growth medium and stimulated with novel compounds. After 20 hr of stimulation supernatant were removed and secretary reporter gene activity were measured using the Quanti-Luc detection system (Invivogen) on a Spectramax i3X luminometer.
In the tables below, EC50 value ranges for exemplary compounds are given.
Selected compounds were further tested against cynomolgus monkey STING protein overexpressed in HEK293T cells.

[3] = read-out: R232 human activity (EC50 range)
[4] = cynomolgus monkey STING overexpressed in HEK293T cells, read-out: Cynomolgus monkey STING activity (EC50 range)

Chain of hSTING(R232) (Q86WV6 whole entry H232R, the tested form may be a part): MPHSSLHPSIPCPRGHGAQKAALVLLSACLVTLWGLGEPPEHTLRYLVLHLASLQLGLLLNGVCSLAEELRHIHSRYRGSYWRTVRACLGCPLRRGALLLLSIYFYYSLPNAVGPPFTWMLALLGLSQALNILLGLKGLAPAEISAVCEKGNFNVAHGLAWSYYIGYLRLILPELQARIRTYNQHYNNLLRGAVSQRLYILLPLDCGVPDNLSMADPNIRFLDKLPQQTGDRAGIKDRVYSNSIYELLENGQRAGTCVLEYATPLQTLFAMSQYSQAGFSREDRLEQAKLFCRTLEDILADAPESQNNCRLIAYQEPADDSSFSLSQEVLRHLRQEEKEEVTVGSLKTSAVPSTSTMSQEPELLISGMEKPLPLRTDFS
Chain of cynomolgus monkey STING protein (A0A2R3XZA6 entry or part of it): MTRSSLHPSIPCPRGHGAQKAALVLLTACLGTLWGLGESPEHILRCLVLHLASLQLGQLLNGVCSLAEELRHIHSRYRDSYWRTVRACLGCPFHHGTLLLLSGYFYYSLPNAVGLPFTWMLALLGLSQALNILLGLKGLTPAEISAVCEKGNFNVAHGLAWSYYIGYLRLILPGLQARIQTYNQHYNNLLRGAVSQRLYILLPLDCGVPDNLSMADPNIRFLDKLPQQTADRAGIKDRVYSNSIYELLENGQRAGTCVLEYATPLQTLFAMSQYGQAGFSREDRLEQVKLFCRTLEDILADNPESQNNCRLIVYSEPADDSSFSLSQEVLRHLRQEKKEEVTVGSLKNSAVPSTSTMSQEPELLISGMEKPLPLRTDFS

Row | SMILES | EC50 [1, 3] [µM] | EC50 [2, 4] [µM] | EC50 ([1]; R232 human activity (EC50 range)) [µM] | EC50 [2] [µM]
1 | C[C@H]1c2ccc(C(=O)NCc3c(F)cc(F)cc3F)cc2N(Cc2c(F)cc(OCCN)cc2Cl)C(=O)N1C [Example 299, (S)-1-(4-(2-aminoethoxy)-2-chloro-6-fluorobenzyl)-3,4-dimethyl-2-oxo-N-(2,4,6-trifluorobenzyl)-1,2,3,4-tetrahydroquinazoline-7-carboxamide hydrochloride] | < 1 | > 10 |  | 
2 | CNCCN(C)C(=O)Oc1ccc(F)c(CN2C(=O)N(C)[C@@H](C)c3ccc(C(=O)NCc4c(F)cc(F)cc4F)cc32)c1Cl [Example 300, (S)-2-chloro-3-((3,4-dimethyl-2-oxo-7-((2,4,6-trifluorobenzyl)carbamoyl)-3,4-dihydroquinazolin-1(2H)-yl)methyl)-4-fluorophenyl-methyl(2-(methylamino)ethyl)carbamate hydrochloride] |  |  | < 1 | < 1
3 | COc1ccc(F)c(CN2C(=O)N(C)C(C)c3ccc(C(=O)NCc4c(F)cc(F)cc4F)cc32)c1 (centres unmarked) [Example 166, 1-(2-fluoro-5-methoxybenzyl)-3,4-dimethyl-2-oxo-N-(2,4,6-trifluorobenzyl)-1,2,3,4-tetrahydroquinazoline-7-carboxamide] | < 1 | 1 to 10 |  | 
4 | C[C@H]1c2ccc(C(=O)NCc3c(F)cc(F)cc3F)cc2N(Cc2c(F)cc(OCCN3CCOCC3)cc2F)C(=O)N1C [Example 291, (S)-1-(2,6-difluoro-4-(2-morpholinoethoxy)benzyl)-3,4-dimethyl-2-oxo-N-(2,4,6-trifluorobenzyl)-1,2,3,4-tetrahydroquinazoline-7-carboxamide] | < 1 | < 1 |  | 
5 | C[C@H]1c2ccc(C(=O)NCc3c(F)cc(F)cc3F)cc2N(Cc2c(F)cc(F)cc2OCCCOP(=O)(O)O)C(=O)N1C [Example 94, (S)-3-(2-((3,4-dimethyl-2-oxo-7-((2,4,6-trifluorobenzyl)carbamoyl)-3,4-dihydroquinazolin-1(2H)-yl)methyl)-3,5-difluorophenoxy)propyl dihydrogen phosphate] | < 1 | > 10 |  | 
6 | COc1cc(F)c(CNC(=O)c2ccc3c(c2)N(Cc2c(F)cc(OC)cc2F)C(=O)N(C)[C@H]3C)c(F)c1 [Example 149, (S)—N,1-bis(2,6-difluoro-4-methoxybenzyl)-3,4-dimethyl-2-oxo-1,2,3,4-tetrahydroquinazoline-7-carboxamide] | < 1 | < 1 |  | 
7 | COc1ccc(F)c(CN2C(=O)N(C)[C@@H](C)c3ccc(C(=O)NCc4c(F)cc(F)cc4F)cc32)c1 [Example 183, (S)-1-(2-fluoro-5-methoxybenzyl)-3,4-dimethyl-2-oxo-N-(2,4,6-trifluorobenzyl)-1,2,3,4-tetrahydroquinazoline-7-carboxamide] | < 1 | < 1 |  | 
8 | C[C@H]1c2ccc(C(=O)NCc3c(F)cc(F)cc3F)cc2N(Cc2c(F)cc(OCCOC(=O)CN)cc2F)C(=O)N1C [Example 187, (S)-2-(4-((3,4-dimethyl-2-oxo-7-((2,4,6-trifluorobenzyl)carbamoyl)-3,4-dihydroquinazolin-1(2H)-yl)methyl)-3,5-difluorophenoxy)ethyl 2-aminoacetate] | < 1 | < 1 |  | 
9 | COc1ccc(F)c(F)c1CN1C(=O)N(C)C(C)c2ccc(C(=O)NCc3c(F)cc(F)cc3F)cc21 (centres unmarked) [Example 178, 1-(2,3-difluoro-6-methoxybenzyl)-3,4-dimethyl-2-oxo-N-(2,4,6-trifluorobenzyl)-1,2,3,4-tetrahydroquinazoline-7-carboxamide] | < 1 | < 1 |  | 
10 | C[C@H]1c2ccc(C(=O)NCc3c(F)cc(F)cc3F)cc2N(Cc2cc(OCCO)cc(F)c2F)C(=O)N1C [Example 282, (S)-1-(2,3-difluoro-5-(2-hydroxyethoxy)benzyl)-3,4-dimethyl-2-oxo-N-(2,4,6-trifluorobenzyl)-1,2,3,4-tetrahydroquinazoline-7-carboxamide] | < 1 | 1 to 10 |  | 
11 | C[C@H]1c2ccc(C(=O)NCc3c(F)cc(F)cc3F)cc2N(Cc2c(F)ccc(CO)c2F)C(=O)N1C [Example 269, (S)-1-(2,6-difluoro-3-(hydroxymethyl)benzyl)-3,4-dimethyl-2-oxo-N-(2,4,6-trifluorobenzyl)-1,2,3,4-tetrahydroquinazoline-7-carboxamide] | < 1 | < 1 |  | 
12 | C[C@H]1c2ccc(C(=O)NCc3c(F)cc(F)cc3F)cc2N(Cc2c(F)cc(OP(=O)(O)O)cc2F)C(=O)N1C [Example 84, (S)-4-((3,4-Dimethyl-2-oxo-7-((2,4,6-trifluorobenzyl)carbamoyl)-3,4-dihydroquinazolin-1(2H)-yl)methyl)-3,5-difluorophenyl dihydrogen phosphate] | < 1 | < 1 |  | 
13 | C[C@H]1c2ccc(C(=O)NCc3c(F)cc(F)cc3F)cc2N(Cc2c(F)ccc(OCCO)c2F)C(=O)N1C [Example 256, (S)-1-(2,6-difluoro-3-(2-hydroxyethoxy)benzyl)-3,4-dimethyl-2-oxo-N-(2,4,6-trifluorobenzyl)-1,2,3,4-tetrahydroquinazoline-7-carboxamide] | < 1 | 1 to 10 |  | 
14 | C[C@H]1c2ccc(C(=O)NCc3c(F)cc(F)cc3F)cc2N(Cc2c(F)cc(F)cc2OP(=O)(O)O)C(=O)N1C [Example 105, (S)-2-((3,4-dimethyl-2-oxo-7-((2,4,6-trifluorobenzyl)carbamoyl)-3,4-dihydroquinazolin-1(2H)-yl)methyl)-3,5-difluorophenyl dihydrogen phosphate] | < 1 | < 1 |  | 

The next lines start with results.

Row | EC50 [1, 3] [µM] | EC50 [2, 4] [µM] | SMILES | EC50 ([1]; R232 human activity (EC50 range)) [µM] | EC50 [2] [µM]
15 | < 1 | < 1 | C[C@H]1c2ccc(C(=O)NCc3c(F)cc(F)cc3F)cc2N(Cc2c(F)cc(OCCCOP(=O)(O)O)cc2F)C(=O)N1C [Example 82, (S)-3-(4-((3,4-dimethyl-2-oxo-7-((2,4,6-trifluorobenzyl)carbamoyl)-3,4-dihydroquinazolin-1(2H)-yl)methyl)-3,5-difluorophenoxy)propyl dihydrogen phosphate] |  | 
16 | < 1 | < 1 | C=CCOc1cc(F)c(CN2C(=O)N(C)[C@@H](C)c3ccc(C(=O)NCc4c(F)cc(F)cc4F)cc32)c(F)c1 [Example 144] |  | 
17 | < 1 | > 10 | C[C@H]1c2ccc(C(=O)NCc3c(F)cc(F)cc3F)cc2N(Cc2c(F)ccc(OCCCOP(=O)(O)O)c2Cl)C(=O)N1C [Example 96, (S)-3-(2-chloro-3-((3,4-dimethyl-2-oxo-7-((2,4,6-trifluorobenzyl)carbamoyl)-3,4-dihydroquinazolin-1(2H)-yl)methyl)-4-fluorophenoxy)propyl dihydrogen phosphate] |  | 
18 | < 1 | < 1 | C[C@H]1c2ccc(C(=O)NCc3c(F)cc(F)cc3F)cc2N(Cc2c(F)cc(OC[C@H](O)CO)cc2F)C(=O)N1C [Example 146, (S)-1-(4-((R)-2,3-Dihydroxypropoxy)-2,6-difluorobenzyl)-3,4-dimethyl-2-oxo-N-(2,4,6-trifluorobenzyl)-1,2,3,4-tetrahydroquinazoline-7-carboxamide] |  | 
19 | < 1 | 1 to 10 | C[C@H]1c2ccc(C(=O)NCc3c(F)cc(F)cc3F)cc2N(Cc2cc(OCCCO)ccc2F)C(=O)N1C [Example 271, (S)-1-(2-fluoro-5-(3-hydroxypropoxy)benzyl)-3,4-dimethyl-2-oxo-N-(2,4,6-trifluorobenzyl)-1,2,3,4-tetrahydroquinazoline-7-carboxamide] |  | 
20 | < 1 | < 1 | C[C@H]1c2ccc(C(=O)NCc3c(F)cc(F)cc3F)cc2N(Cc2c(F)cc(OCCCC(=O)O)cc2F)C(=O)N1C [Example 294, (S)-4-(4-((3,4-dimethyl-2-oxo-7-((2,4,6-trifluorobenzyl)carbamoyl)-3,4-dihydroquinazolin-1(2H)-yl)methyl)-3,5-difluorophenoxy)butanoic acid] |  | 
21 | < 1 | < 1 | C[C@H]1c2ccc(C(=O)NCc3c(F)cc(F)cc3F)cc2N(Cc2c(F)ccc(O)c2F)C(=O)N1C [Example 255, (S)-1-(2,6-difluoro-3-hydroxybenzyl)-3,4-dimethyl-2-oxo-N-(2,4,6-trifluorobenzyl)-1,2,3,4-tetrahydroquinazoline-7-carboxamide] |  | 
22 | < 1 | < 1 | COc1ncc(Cl)c(CN2C(=O)N(C)[C@@H](C)c3ccc(C(=O)NCc4c(F)cc(F)cc4F)cc32)c1F [Example 184, (S)-1-((5-chloro-3-fluoro-2-methoxypyridin-4-yl)methyl)-3,4-dimethyl-2-oxo-N-(2,4,6-trifluorobenzyl)-1,2,3,4-tetrahydroquinazoline-7-carboxamide] |  | 
23 | < 1 | < 1 | COc1cc(F)cc(F)c1CN1C(=O)N(C)[C@@H](C)c2ccc(C(=O)NCc3c(F)cc(F)cc3F)cc21 [Example 259, (S)-1-(2,4-difluoro-6-methoxybenzyl)-3,4-dimethyl-2-oxo-N-(2,4,6-trifluorobenzyl)-1,2,3,4-tetrahydroquinazoline-7-carboxamide] |  | 
24 | < 1 | > 10 | C[C@H]1c2ccc(C(=O)NCc3c(F)cc(F)cc3F)cc2N(Cc2c(F)cc(F)cc2OCCCO)C(=O)N1C [Example 275, (S)-1-(2,4-difluoro-6-(3-hydroxypropoxy)benzyl)-3,4-dimethyl-2-oxo-N-(2,4,6-trifluorobenzyl)-1,2,3,4-tetrahydroquinazoline-7-carboxamide] |  | 
25 | < 1 | 1 to 10 | C[C@H]1c2ccc(C(=O)NCc3c(F)cc(F)cc3F)cc2N(Cc2cc(N)ccc2F)C(=O)N1C [Example 273, (S)-1-(5-amino-2-fluorobenzyl)-3,4-dimethyl-2-oxo-N-(2,4,6-trifluorobenzyl)-1,2,3,4-tetrahydroquinazoline-7-carboxamide] |  | 
